22 compounds from patent publication US20230374034A1, “NOVEL BICYCLIC COMPOUNDS” (PRISM BIOLAB CO., LTD., priority 2020, published 2023) can be followed below.

For the first assay, the system named is NICD (Notch intracellular domain) CSL-bla reporter in HeLa cells. As to the kind of experiment: Notch assay (CellSensor T-REx NICD CSL-bla HeLa beta-lactamase reporter; Method 1 / Method 2). In kind it is cell-based. The following applies: Homo sapiens, 10 μM compound, Method 1 (10× compound prepared in assay medium, added to plated cells), read-out: inhibiton (%) at 10 μM. The method in brief:
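HeLa cells carrying doxycycline-inducible NICD and a CSL-driven beta-lactamase reporter, 10^3 cells/well, were treated with compound plus doxycycline for 16-20 h at 37 °C. CCF4-AM substrate was loaded for 4 h at room temperature; background-subtracted blue (460 nm)/green (530 nm) emission ratio taken per well.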
For the compound `CCCCCCOC(=O)N1O[C@H](CCCC)C(=O)N2C1CN(CCC(C)C)C(=O)[C@@H]2Cc1ccc(O)cc1` (stereo partly drawn) [Compound I-2, (3R,6S)-hexyl 3-butyl-6-(4-hydroxybenzyl)-8-isopentyl-4,7-dioxohexahydropyrazino[2,1-c][1,2,4]oxadiazine-1(6H)-carboxylate], the inhibition at 10 µM worked out at 53.5%.
The same measure, in the same setting: as for `CC(C)[C@H]1C(=O)N(Cc2cccc3ccccc23)CC2N(C(=O)OCc3cccc4ccccc34)O[C@H](CC(N)=O)C(=O)N21` (stereo partly drawn) [Compound I-19, (3R,6S)-naphthalen-1-ylmethyl 3-(2-amino-2-oxoethyl)-6-isopropyl-8-(naphthalen-1-ylmethyl)-4,7-dioxohexahydropyrazino[2,1-c][1,2,4]oxadiazine-1(6H)-carboxylate], the figure is 67.3%.
On to `CC(C)C[C@H]1ON(C(=O)OCc2cccc3ccccc23)C2CN(CCC(N)=O)C(=O)[C@H](CC3CCCCC3)N2C1=O` (stereo partly drawn) [Compound I-13, (3R,6S)-naphthalen-1-ylmethyl 8-(3-amino-3-oxopropyl)-6-(cyclohexylmethyl)-3-isobutyl-4,7-dioxohexahydropyrazino[2,1-c][1,2,4]oxadiazine-1(6H)-carboxylate], for which the inhibition at 10 µM was 55.5%.
On the same count and under the same terms, then `CC(C)[C@H]1ON(C(=O)OCC2CCCCC2)C2CN(Cc3ccccc3)C(=O)[C@H](Cc3ccc(O)cc3)N2C1=O` (stereo partly drawn) [Compound I-7, (3R,6S)-cyclohexylmethyl 8-benzyl-6-(4-hydroxybenzyl)-3-isopropyl-4,7-dioxohexahydropyrazino[2,1-c][1,2,4]oxadiazine-1(6H)-carboxylate], with 55.5%.
On the same count and under the same terms, then `CC(C)[C@@H]1ON(C(=O)OCc2cccc3ccccc23)C2CN(C(C)C)C(=O)[C@H](Cc3ccc(O)cc3)N2C1=O` (stereo partly drawn) [Compound I-22, (3S,6S)-naphthalen-1-ylmethyl 6-(4-hydroxybenzyl)-3,8-diisopropyl-4,7-dioxohexahydropyrazino[2,1-c][1,2,4]oxadiazine-1(6H)-carboxylate], with 72.8%.
With `CC(C)COC(=O)N1O[C@H](C(C)C)C(=O)N2C1CN(Cc1cccc3ccccc13)C(=O)[C@@H]2Cc1ccc(O)cc1` (stereo partly drawn) [Compound I-1, (3R,6S)-isobutyl 6-(4-hydroxybenzyl)-3-isopropyl-8-(naphthalen-1-ylmethyl)-4,7-dioxohexahydropyrazino[2,1-c][1,2,4]oxadiazine-1(6H)-carboxylate], the inhibition at 10 µM amounted to 55.9%.

The assay is the same for the next values; noted with them: Homo sapiens, 10 μM compound, Method 2 (40 nL of 1000× compound added to plate with Echo), read-out: inhibiton (%) at 10 μM.
`CCCC[C@H]1C(=O)N(CCc2cccc3ccccc23)CC2N(C(=O)OCCc3ccc(O)cc3)O[C@H](Cc3ccc(O)cc3)C(=O)N21` (stereo partly drawn) [Compound I-45, (3R,6S)-4-hydroxyphenethyl 6-butyl-3-(4-hydroxybenzyl)-8-(2-(naphthalen-1-yl)ethyl)-4,7-dioxohexahydropyrazino[2,1-c][1,2,4]oxadiazine-1(6H)-carboxylate]: the inhibition at 10 µM came to 54.9%.
Still for that read-out and setting: then `O=C1[C@H](CO)N2C(=O)[C@@H](Cc3ccc(O)cc3)ON(C(=O)OCc3ccccc3)C2CN1CCc1cccc2ccccc12` (stereo partly drawn) [Compound I-48, (3R,6S)-benzyl 3-(4-hydroxybenzyl)-6-(hydroxymethyl)-8-(2-(naphthalen-1-yl)ethyl)-4,7-dioxohexahydropyrazino[2,1-c][1,2,4]oxadiazine-1(6H)-carboxylate], with 57.3%; and `CC(C)CCCNC(=O)[C@H](Cc1ccc(O)cc1)N1CC2N(C(=O)OCCc3ccc(O)cc3)O[C@H](Cc3ccccc3)C(=O)N2[C@@H](Cc2ccc(O)cc2)C1=O` (stereo partly drawn) [Compound I-110, 4-hydroxyphenethyl (3R,6S)-3-benzyl-6-(4-hydroxybenzyl)-8-((S)-3-(4-hydroxyphenyl)-1-((4-methylpentyl)amino)-1-oxopropan-2-yl)-4,7-dioxohexahydropyrazino[2,1-c][1,2,4]oxadiazine-1(6H)-carboxylate], with 75.2%.
On to `CC(C)C[C@H]1ON(C(=O)OCc2ccccc2)C2CN(C3CCN(C)CC3)C(=O)[C@H](CCCCN(Cc3ccccc3)Cc3ccccc3)N2C1=O` (stereo partly drawn) [Compound I-144, benzyl (3R,6S)-6-(4-(dibenzylamino)butyl)-3-isobutyl-8-(1-methylpiperidin-4-yl)-4,7-dioxohexahydropyrazino [2,1-c][1,2,4]oxadiazine-1(6H)-carboxylate], for which the inhibition at 10 µM is 78.1%.
The same measure, in the same setting: then `COC(=O)N1O[C@H](CC2CCCCC2)C(=O)N2C1CN(CCc1cccc3ccccc13)C(=O)[C@@H]2CCCCN` (stereo partly drawn) [Compound I-42, (3R,6S)-methyl 6-(4-aminobutyl)-3-(cyclohexylmethyl)-8-(2-(naphthalen-1-yl)ethyl)-4,7-dioxohexahydropyrazino[2,1-c][1,2,4]oxadiazine-1(6H)-carboxylate], with 95%.
Consider `CC(C)NC(=O)N1O[C@H](CCCNC(=N)N)C(=O)N2C1CN(Cc1cccc3ccccc13)C(=O)[C@@H]2C` (stereo partly drawn) [Compound I-51, (3R,6S)-3-(3-guanidinopropyl)-N-isopropyl-6-methyl-8-(naphthalen-1-ylmethyl)-4,7-dioxohexahydropyrazino[2,1-c][1,2,4]oxadiazine-1(6H)-carboxamide], for which the inhibition at 10 µM came to 55.3%.
The same measure, in the same setting: then `CCCCCCNC(=O)N1O[C@H](Cc2ccccc2)C(=O)N2C1CN(CCC(c1ccccc1)c1ccccc1)C(=O)[C@@H]2CCC(N)=O` (stereo partly drawn) [Compound I-57, (3R,6S)-6-(3-amino-3-oxopropyl)-3-benzyl-8-(3,3-diphenylpropyl)-N-hexyl-4,7-dioxohexahydropyrazino[2,1-c][1,2,4]oxadiazine-1(6H)-carboxamide], with 63.4%.
Still for that read-out and setting: as for `NC(=O)C[C@H]1C(=O)N(CCc2ccccc2)CC2N(C(=O)OCC3CCCCC3)O[C@H](Cc3ccc(O)cc3)C(=O)N21` (stereo partly drawn) [Compound I-39, (3R,6S)-cyclohexylmethyl 6-(2-amino-2-oxoethyl)-3-(4-hydroxybenzyl)-4,7-dioxo-8-phenethylhexahydropyrazino [2,1-c][1,2,4]oxadiazine-1(6H)-carboxylate], the figure is 52.1%; as for `CC(C)CCCNC(=O)[C@H](CC(C)C)N1CC2N(C(=O)OCCc3ccc(O)cc3)O[C@H](Cc3ccccc3)C(=O)N2[C@@H](Cc2ccc(O)cc2)C1=O` (stereo partly drawn) [Compound I-104, 4-hydroxyphenethyl (3R,6S)-3-benzyl-6-(4-hydroxybenzyl)-8-((S)-4-methyl-1-((4-methylpentyl)amino)-1-oxopentan-2-yl)-4,7-dioxohexahydropyrazino[2,1-c][1,2,4]oxadiazine-1(6H)-carboxylate], 70.2%.
With `CCCC[C@@H](C(=O)NCCC(C)C)N1CC2N(C(=O)OCCc3ccc(O)cc3)O[C@H](Cc3ccccc3)C(=O)N2[C@@H](Cc2ccc(O)cc2)C1=O` (stereo partly drawn) [Compound I-109, 4-hydroxyphenethyl (3R,6S)-3-benzyl-6-(4-hydroxybenzyl)-8-((S)-1-(isopentylamino)-1-oxohexan-2-yl)-4,7-dioxohexahydropyrazino[2,1-c][1,2,4]oxadiazine-1(6H)-carboxylate], the inhibition at 10 µM worked out at 74%.
For `CC(C)CCOC(=O)N1O[C@H](C)C(=O)N2C1CN([C@@H](Cc1ccccc1)C(=O)NCCCO)C(=O)[C@@H]2Cc1ccccc1` (stereo partly drawn) [Compound I-89, isopentyl (3R,6S)-6-benzyl-8-((S)-1-((3-hydroxypropyl)amino)-1-oxo-3-phenylpropan-2-yl)-3-methyl-4,7-dioxohexahydropyrazino[2,1-c][1,2,4]oxadiazine-1(6H)-carboxylate], the inhibition at 10 µM worked out at 58.3%.
`CCCCCN1CC2N(C(=O)OCC3CCCCC3)O[C@H](Cc3ccccc3)C(=O)N2[C@@H](CCCCN)C1=O` (stereo partly drawn) [Compound I-28, (3R,6S)-cyclohexylmethyl 6-(4-aminobutyl)-3-benzyl-4,7-dioxo-8-pentylhexahydropyrazino [2,1-c][1,2,4]oxadiazine-1(6H)-carboxylate]: the inhibition at 10 µM worked out at 99.7%.
Take `CC(C)CCCNC(=O)[C@H](Cc1ccc(O)cc1)N1CC2N(C(=O)OCCC(C)C)O[C@H](CC(C)C)C(=O)N2[C@@H](Cc2ccc(O)cc2)C1=O` (stereo partly drawn) [Compound I-98, isopentyl (3R,6S)-6-(4-hydroxybenzyl)-8-((S)-3-(4-hydroxyphenyl)-1-((4-methylpentyl)amino)-1-oxopropan-2-yl)-3-isobutyl-4,7-dioxohexahydropyrazino [2,1-c][1,2,4]oxadiazine-1(6H)-carboxylate]: the inhibition at 10 µM was determined as 60.4%.
Take `CCCC[C@@H](C(=O)NCCC(C)C)N1CC2N(C(=O)OCCc3ccc(O)cc3)O[C@H](CC(C)C)C(=O)N2[C@@H](Cc2ccc(O)cc2)C1=O` (stereo partly drawn) [Compound I-97, 4-hydroxyphenethyl (3R,6S)-6-(4-hydroxybenzyl)-3-isobutyl-8-((S)-1-(isopentylamino)-1-oxohexan-2-yl)-4,7-dioxohexahydropyrazino[2,1-c][1,2,4]oxadiazine-1(6H)-carboxylate]: the inhibition at 10 µM was 57.3%.
Same read-out and setting: then `CCCC[C@@H](C(=O)NCCCC(C)C)N1CC2N(C(=O)OCCc3ccc(O)cc3)O[C@H](Cc3ccccc3)C(=O)N2[C@@H](Cc2ccc(O)cc2)C1=O` (stereo partly drawn) [Compound I-112, 4-hydroxyphenethyl (3R,6S)-3-benzyl-6-(4-hydroxybenzyl)-8-((S)-1-((4-methylpentyl)amino)-1-oxohexan-2-yl)-4,7-dioxohexahydropyrazino[2,1-c][1,2,4]oxadiazine-1(6H)-carboxylate], with 54.2%.
On the same count and under the same terms, then `CCCCCOC(=O)N1O[C@H](Cc2ccccc2)C(=O)N2C1CN([C@@H](Cc1ccc(O)cc1)C(=O)NCCc1ccccc1)C(=O)[C@@H]2Cc1ccc(O)cc1` (stereo partly drawn) [Compound I-113, pentyl (3R,6S)-3-benzyl-6-(4-hydroxybenzyl)-8-((S)-3-(4-hydroxyphenyl)-1-oxo-1-(phenethylamino)propan-2-yl)-4,7-dioxohexahydropyrazino[2,1-c][1,2,4]oxadiazine-1(6H)-carboxylate], with 62.9%.
